These results are taken from US20200276256A1, “SKIN CARE COMPOSITION” (ISN Pharma SP.Z.O.O., priority 2017, published 2020).

Structures are written as SMILES.

Series [1] relates to HaCaT cell line infected with HHV-1. As to the kind of experiment: Cell Count Assay (NucleoCounter NC-3000), HHV-1 infected cells. The note with it: Control + acyclovir, HHV-1 infected HaCaT. Type of series: cell-based, human. The protocol: Next, cell viability additionally in the presence of the Herpes virus was investigated with a Cell Count Assay (NucleoCounter NC-3000). An HHV-1 suspension was added to HaCaT cell line and incubated for 1 hour to enable adsorption of virus to cells; the cells were then incubated with the extract, in the respective dilution ratios, for 24 hrs.

Series [2] has the same test system. As to the kind of experiment: Vitality VB-48 Assay, HHV-1 infected cells. Type of series: cell-based, human. The note with it: Control + acyclovir, mean. The protocol:
Vitality VB-48 Assay (NucleoCounter NC-3000) was used to determine the percentage estimation of keratinocytes of varied degrees of viability after 24 h incubation with Kalanchoe daigremontiana extract.
An HHV-1 suspension was added to HaCaT cell line and incubated for 1 hour to enable adsorption of virus to cells. Afterwards, the cells were incubated with a plant extract of the respective dilution for 24 hrs to assess the viability of the keratinocytes with HHV-1 incubated with the respective dilutions of the extract of the invention as compared with Acyclovir.

The test system of another series is HHV-1. Kind of series: Confocal microscopy, direct immunofluorescence staining of infected HaCaT cells. Type of series: cell-based, Human herpesvirus 1. The note with it: acyclovir added to infected HaCaT; 48 hrs after infection; FIG. 19. The source says: Confocal microscopy (microscope magnification—60×, digital zoom) was used to view the cell structure status and positioning 48 hrs after infection with HHV-1 (FIG. 18). The method of direct immunofluorescence staining wherein the nucleus—blue (A), viral antigen —green (B), actin—red (C), nucleus/actin (D) helps further understand the structural changes in the cells. The same confocal microscopy technique was used to view the cell structure status and positioning after HHV-1 infection and treatment with Kalanchoe daigremontiana. As before the method of direct immunofluorescence staining is nucleus—blue (A), viral antigen—green (B), actin—red (C), nucleus/actin (D).

Take `Nc1nc2c(ncn2COCCO)c(=O)[nH]1` [acyclovir]: in series [1], the “All cells Cell %” value was determined as 79.67%, the “All cells Mean intensity” value is recorded as 160070.3, the “All cells Number of cells” value is 7648 and the “Dead cells Cell %” value was 24.05%. In series [1], the “Dead cells Mean intensity” value is listed as 152872.9, the “Dead cells Number of cells” value is given as 5683 and the “Viability [%]” value came out at 25.7%. In series [1] (listed as Acyclovir), the “Viability [%]” value was 25%. For the same compound, in series [2], the dead cells % worked out at 77.1%, the healthy cells % was determined as 3.27% and the “lower viability cells %” value worked out at 19.51%. Besides, the “amount of viral antigen” value in the series on HHV-1 is recorded as “lower amount of viral antigen”.
